The values that follow come from ChEMBL document CHEMBL3399980, “Synthesis and biological evaluation of novel selective androgen receptor modulators (SARMs). Part I” (Bioorg Med Chem, 2015).

In data set [1] the target is T1, Androgen receptor (Homo sapiens, UniProt P10275).
T1 sequence (P10275 whole entry): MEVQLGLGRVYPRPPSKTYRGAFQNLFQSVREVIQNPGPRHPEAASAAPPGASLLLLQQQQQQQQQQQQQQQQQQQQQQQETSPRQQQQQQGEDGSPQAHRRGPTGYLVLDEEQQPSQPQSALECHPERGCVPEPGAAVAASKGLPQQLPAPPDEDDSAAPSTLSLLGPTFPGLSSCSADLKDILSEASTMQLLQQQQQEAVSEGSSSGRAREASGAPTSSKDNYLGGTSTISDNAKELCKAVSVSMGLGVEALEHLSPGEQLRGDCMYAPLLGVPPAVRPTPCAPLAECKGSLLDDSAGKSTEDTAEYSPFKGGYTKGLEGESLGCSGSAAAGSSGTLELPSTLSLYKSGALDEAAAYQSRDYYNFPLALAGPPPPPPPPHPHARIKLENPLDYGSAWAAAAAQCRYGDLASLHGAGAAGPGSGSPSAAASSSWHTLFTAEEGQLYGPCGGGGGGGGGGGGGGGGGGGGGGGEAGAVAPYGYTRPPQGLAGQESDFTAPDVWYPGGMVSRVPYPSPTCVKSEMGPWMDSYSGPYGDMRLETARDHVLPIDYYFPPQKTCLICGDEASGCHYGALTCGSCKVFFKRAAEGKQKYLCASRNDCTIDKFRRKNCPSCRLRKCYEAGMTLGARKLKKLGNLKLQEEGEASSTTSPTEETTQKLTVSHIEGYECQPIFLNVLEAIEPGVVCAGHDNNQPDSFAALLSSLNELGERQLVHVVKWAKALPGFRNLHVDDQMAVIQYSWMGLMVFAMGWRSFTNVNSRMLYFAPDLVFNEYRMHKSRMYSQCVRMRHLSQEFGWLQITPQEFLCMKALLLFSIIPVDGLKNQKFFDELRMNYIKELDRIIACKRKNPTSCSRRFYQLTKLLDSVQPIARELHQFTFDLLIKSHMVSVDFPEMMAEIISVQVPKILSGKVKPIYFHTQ
As to the kind of experiment: Displacement of [3H]mibolerone from androgen receptor (unknown origin) after 3 hrs.

Data set [2] addresses T1, Androgen receptor. As to the kind of experiment: Modulation of androgen receptor (unknown origin) expressed in Cos7 cells assessed as luciferase activity after 24 hrs. Format: cell-based, COS-7.
For data set [3], the system named is Rattus norvegicus. Briefly: Toxicity in male CD(SD)IGS rat assessed as effect on prostate weight at 1.5 mg/kg, po bid for 4 days by Hershberger assay. As to conditions: in vivo, 96 h; call rule not given here. Format: organism-based, Prostate gland. Set-up: dose 1.5 mg/kg, route oral.
In data set [4] the test system is Rattus norvegicus. Briefly: Toxicity in male CD(SD)IGS rat assessed as effect on seminal vesicle weight at 1.5 mg/kg, po bid for 4 days by Hershberger assay. Format: organism-based. Set-up: dose 1.5 mg/kg, route oral. The note with it: in vivo, 96 h.
A further data set deals with Brain. As to the kind of experiment: Drug uptake in male Sprague-Dawley rat brain at 5 mg/kg, po. Format: ADME, organism-based. Set-up: dose 5 mg/kg, route oral. As to conditions: in vivo.
The test system of the next data set is Plasma. As to the kind of experiment: Drug uptake in male Sprague-Dawley rat plasma at 5 mg/kg, po. Format: ADME, organism-based. Set-up: dose 5 mg/kg, route oral. The note with it: in vivo.
The next data set relates to Prostate gland. As to the kind of experiment: Drug uptake in male Sprague-Dawley rat prostate at 5 mg/kg, po. Format: ADME, organism-based. Set-up: dose 5 mg/kg, route oral. As to conditions: in vivo.
The nature of data set [5]: Drug uptake in male Sprague-Dawley rat levator ani muscle at 5 mg/kg, po. The data set is classed as ADME, organism-based. As to conditions: in vivo. Set-up: dose 5 mg/kg, route oral.
In data set [6] the test system is Rattus norvegicus. Briefly: Induction of sexual behavior in castrated male CD(SD)IGS rat assessed as pseudopregnancy rate in female rat at 2.5 mg/kg, po bid measured on day 21 after first treatment (reference value: 0%). Format: functional.
The test system of data set [7] is Rattus norvegicus. Briefly: Induction of sexual behavior in castrated male CD(SD)IGS rat assessed as pseudopregnancy rate in female rat at 3.5 mg/kg, po bid measured on day 21 after first treatment (reference value: 0%). Format: functional.
Data set [8] relates to Rattus norvegicus. As to the kind of experiment: Induction of sexual behavior in castrated male CD(SD)IGS rat assessed as pseudopregnancy rate in female rat at 5 mg/kg, po bid measured on day 21 after first treatment (reference value: 0%). Format: functional.
The subject of data set [9] is Rattus norvegicus. As to the kind of experiment: Induction of levator ani muscle weight in male CD(SD)IGS rat at 1.5 mg/kg, po bid for 4 days by Hershberger assay. The data set is classed as functional.
In data set [10] the test system is Rattus norvegicus. As to the kind of experiment: Induction of sexual behavior in castrated male CD(SD)IGS rat assessed as pseudopregnancy rate in female rat at 0.5 mg/kg, po bid measured on day 21 after first treatment (reference value: 0%). The data set is classed as functional.
In data set [11] the test system is Rattus norvegicus. Briefly: Induction of sexual behavior in castrated male CD(SD)IGS rat assessed as pseudopregnancy rate in female rat at 1.5 mg/kg, po bid measured on day 21 after first treatment (reference value: 0%). The data set is classed as functional.

pEC50, pIC50: −log10 of the molar value.

At Androgen receptor [1], `O=C(O)c1ccc(N2CCCC2)c2ccccc12` had a pIC50 of under 5.00.
`COC(=O)[C@H]1CCN(c2ccc(C#N)c3ccccc23)[C@H]1C` gave a pIC50 at Androgen receptor [1] of 8.12. Besides, the pEC50 on Androgen receptor [2] is under 6.00.
At Androgen receptor [1], `C[C@H]1[C@@H](C(C)(C)O)CCN1c1ccc(C#N)c2ccccc12` showed a pIC50 of 8.85. The pEC50 at Androgen receptor [2] was 7.35. Further, the Activity result is “Non-toxic” in the data set on Rattus norvegicus [3]; “Non-toxic” with Rattus norvegicus [4]; 57% in the data set on Rattus norvegicus [6]; 57% in the data set with Rattus norvegicus [7]; 50% in the data set with Rattus norvegicus [8]. The Drug uptake result (in the data set on Brain; in the data set with Plasma; in the data set on Prostate gland; in [5]) was “Active” in each case.
On to `N#Cc1ccc(N2CCC[C@@H]2C(N)=O)c2ccccc12`, for which the pIC50 at Androgen receptor [1] is 7.47. On Androgen receptor [2], the pEC50 is 7.68.
Turning to `CC[C@H]1CCCN1c1ccc(C#N)c2ccccc12`, the pIC50 at Androgen receptor [1] was 8.96. Moreover, at Androgen receptor [2], the pEC50 was 9.62.
Regarding `C[C@H]1[C@H](O)CCN1c1ccc(C#N)c2ccccc12`, on Androgen receptor [1], the pIC50 is 8.62. For the same compound, the pEC50 on Androgen receptor [2] was 9.49. The Activity is given as 150% with Rattus norvegicus [9]; “Non-toxic” with Rattus norvegicus [3]; “Non-toxic” in the data set with Rattus norvegicus [4]; 38% with Rattus norvegicus [10]; 67% with Rattus norvegicus [11]; 67% with Rattus norvegicus [8].
On Androgen receptor [1], `O=[N+]([O-])c1ccc(N2CCCC2)c2ccccc12` had a pIC50 of 8.60. The pEC50 on Androgen receptor [2] was 7.39.
The like results for `C[C@H]1CCCN1c1ccc(C#N)c2ccccc12` were, in that order, 9.08 and 9.72.
On to `C[C@H]1[C@@H](O)CCN1c1ccc(C#N)c2ccccc12`, for which the pIC50 at Androgen receptor [1] is 8.66. The pEC50 at Androgen receptor [2] was 9.60. Also, the Activity in the data set with Rattus norvegicus [9] is reported as 150%; in the data set on Rattus norvegicus [3] it was “Non-toxic”; with Rattus norvegicus [4], “Non-toxic”; with Rattus norvegicus [10], 44%; with Rattus norvegicus [11], 70%; in the data set with Rattus norvegicus [8] it was 80%.
Compound `N#Cc1ccc(N2CCCC2)c2ccccc12` gave a pIC50 at Androgen receptor [1] of 8.60. At Androgen receptor [2], the pEC50 was 8.60.
On Androgen receptor [1], `C[C@H]1[C@@H](CO)CCN1c1ccc(C#N)c2ccccc12` showed a pIC50 of 8.39. Further, on Androgen receptor [2], the pEC50 is 8.92.
In the same order, the values of `CC1(C)CCCN1c1ccc(C#N)c2ccccc12` are 8.15 and 7.68.
The like results for `C[C@H]1C(=O)CCN1c1ccc(C#N)c2ccccc12` were, in that order, 7.43 and 8.66.
The like results for `CC(C)[C@H]1CCCN1c1ccc(C#N)c2ccccc12` were, in that order, 8.85 and 8.70.
On Androgen receptor [1], `N#Cc1ccc(N2CCC[C@@H]2C#N)c2ccccc12` gave a negative logarithm of the IC50 (pIC50) of 9.00. Also, on Androgen receptor [2], the pEC50 is 6.80.
In the same order, the values of `C[C@@H]1CCCN1c1ccc(C#N)c2ccccc12` are 7.70 and under 6.00.
